Results from ChEMBL document CHEMBL5029147 (J Med Chem, 2021).
Active and inactive are the calls of the source. The rule behind the calls is not given here.

Legend:
[1] = Drug metabolism in human MDA-MB-231 cells assessed as intracellular hydroxy-PTX metabolite formation measured after 24 hrs by LC-MS/MS-MRM analysis; assay type: ADME, cell-based; conditions: mda-mb-231, 24 h
[2] = Drug uptake in human MCF7 cells at 1 uM measured after 24 hrs in presence of 100 uM photoCORM delivered CO by LC-MS/MS-MRM analysis; assay type: ADME, cell-based; conditions: mcf7, 24 h
[3] = Drug metabolism in human MCF7 cells assessed as intracellular hydroxy-PTX metabolite formation at 0.2 to 1 uM measured after 24 hrs by HPLC-MS/MS-MRM analysis; assay type: ADME, cell-based; conditions: mcf7, 24 h, dose 0.2-1 µM
HepG2 = experiment: Cytotoxicity against human HepG2 cells assessed as reduction in cell viability incubated for 24 hrs in presence of chloramphenicol by MTT assay; assay type: functional, cell-based
MDA-MB-231 [4] = experiment: Cytotoxicity against human MDA-MB-231 cells assessed as reduction in cell viability at < 0.5 uM incubated for 24 hrs in presence of 20 uM chloramphenicol by MTT assay; assay type: functional, cell-based; conditions: dose microM <0.5, time 24.0 hrs
[5] = Drug metabolism in human MCF7 cells assessed as decline in intracellular hydroxy-PTX metabolite level at 1 uM measured after 24 hrs in presence of 50 to 100 uM photoCORM delivered CO by LC-MS/MS-MRM analysis; assay type: ADME, cell-based; conditions: mcf7, 24 h
MCF7 [6] = experiment: Effect on BCRP expression in human MCF7 cells at 0.5 to 1 uM incubated for 24 hrs by western blot analysis; assay type: functional, cell-based; conditions: dose 0.5-1 µM
[7] = Drug metabolism in human MCF7 cells assessed as intracellular hydroxy-PTX metabolite formation at 1 uM measured after 24 hrs by LC-MS/MS-MRM analysis; assay type: ADME, cell-based; conditions: mcf7, 24 h
[8] = Drug uptake in human MCF7 cells at 1 uM measured after 24 hrs in presence of 20 uM chloramphenicol by LC-MS/MS-MRM analysis; assay type: ADME, cell-based; conditions: mcf7, 24 h
[9] = Drug uptake in human HepG2 cells at 1 to 2 uM measured after 24 hrs in presence of photoCORM delivered CO by LC-MS/MS-MRM analysis; assay type: ADME, cell-based; conditions: hepg2, 24 h, dose 1-2 µM
[10] = Drug uptake in human MCF7 cells at 1 uM measured after 24 hrs in presence of 50 to 100 uM photoCORM delivered CO by LC-MS/MS-MRM analysis; assay type: ADME, cell-based; conditions: mcf7, 24 h
MDA-MB-231 [11] = experiment: Cytotoxicity against human MDA-MB-231 cells assessed as reduction in cell viability incubated for 24 hrs in presence of chloramphenicol by MTT assay; assay type: functional, cell-based
MCF7 [12] = experiment: Effect on CYP2C8 expression in human MCF7 cells at 0.5 to 1 uM incubated for 24 hrs by western blot analysis; assay type: functional, cell-based; conditions: dose 0.5-1 µM
[13] = Drug uptake in human MCF7 cells at 0.2 to 1 uM measured after 24 hrs by HPLC-MS/MS-MRM analysis; assay type: ADME, cell-based; conditions: mcf7, 24 h, dose 0.2-1 µM

CC(=O)O[C@H]1C(=O)[C@@]2(C)[C@H]([C@H](OC(=O)c3ccccc3)[C@]3(O)C[C@H](OC(=O)[C@H](O)[C@@H](NC(=O)c4ccccc4)c4ccccc4)C(C)=C1C3(C)C)[C@]1(OC(C)=O)CO[C@@H]1C[C@@H]2O [PACLITAXEL]
Drug metabolism [1]: Metabolite_Notdetected | Drug uptake [2]: Not Active | Drug metabolism [3]: Metabolite_Detected | Activity (HepG2): Active | Activity (MDA-MB-231 [4]): Active | Drug metabolism [5]: Metabolite_Notdetected | Activity (MCF7 [6]): inactive | Drug metabolism [7]: 1 fmol/µg | Drug uptake [8]: Not Active | Drug uptake [9]: Active | Drug uptake [10]: Not Active | Activity (MDA-MB-231 [11]): Active | Activity (MCF7 [12]): inactive | Drug uptake [13]: Active
